Measured values published in US4849405A, “Oral insulin and a method of making the same” (priority 1986, dated 1989).

Test system: white laboratory rats
Assay: Blood glucose level in rats before and three hours after administration of oral insulin preparation
Assay type: in vivo
Settings: rat; preparation containing 5 units of bovine insulin; three hours after administration
Protocol: Two white laboratory rats, weighing 177 and 197 grams, respectively, were used in this experiment. One rat was administered a preparation of oral insulin according to the present invention containing 5 units of insulin; a formulation of the oral insulin according to the present invention containing 10 units of bovine insulin was administered to the second rat. Blood samples were drawn from each animal before and three hours after administration of the oral insulin preparation. The results given below are expressed as the percentage of the pre-experiment blood glucose level.
One white laboratory rat weighing 181 grams received a non-encapsulated preparation containing 5 units of free bovine insulin. This animal served as the control. After three hours, blood glucose level was 98.7% of the pre-experiment blood glucose level.

In the case of “free bovine insulin: non-encapsulated preparation containing 5 units of free bovine insulin; served as the control”, the “blood glucose level as percentage of the pre-experiment blood glucose level” value is reported as 98.7%.
